# Source: patent US6569836B2, “6-O-alkyl-2-nor-2-substituted ketolide derivatives” (Abbott Laboratories, priority 1999, dated 2003)
# Experiments:
# Experiment in all cases: In vitro antibacterial activity, agar dilution MIC
# [1] = system: Streptococcus pyogenes EES61; type: cell-based; conditions: code LL, BHI agar, 35-37° C., 20-24 hours, unit assumed
# Method: (§1) Each plate was inoculated with 1:100 (or 1:10 for slow-growing strains, such as Micrococcus and Streptococcus) dilutions of up to 32 different microorganisms, using a Steers replicator block. The inoculated plates were incubated at 35-37° C. for 20-24 hours. In addition, a control plate using BHI agar with no test compound was prepared and incubated at the beginning and end of each test. A plate containing erythromycin A was also prepared to provide test-to-test comparability. […] After incubation, each plate was visually inspected. The minimum inhibitory concentration (MIC) was defined as the lowest concentration of drug yielding no growth, a slight haze, or sparsely isolated colonies on the inoculum spot as compared to the growth control.
# [2] = system: Staphylococcus aureus ATCC 6538P; type: cell-based; conditions: code AA, BHI agar, 35-37° C., 20-24 hours, unit assumed
# Method: as §1
# [3] = system: Streptococcus Pneumonia GYR 1171; type: cell-based; conditions: code YY, BHI agar, 35-37° C., 20-24 hours
# Method: as §1
# [4] = system: Streptococcus Pneumonia ATCC 6303; type: cell-based; conditions: code XX, BHI agar, 35-37° C., 20-24 hours, unit assumed
# Method: as §1
# [5] = system: Staphylococcus epidermidis 3519; type: cell-based; conditions: code HH, BHI agar, 35-37° C., 20-24 hours, unit assumed
# Method: as §1
# [6] = system: Staphylococcus aureus A-5177; type: cell-based; conditions: code BB, BHI agar, 35-37° C., 20-24 hours, unit assumed
# Method: as §1
# [7] = system: Staphylococcus aureus A-5278; type: cell-based; conditions: code CC, BHI agar, 35-37° C., 20-24 hours, unit assumed
# Method: as §1
# [8] = system: Candida albicans CCH 442; type: cell-based; conditions: code TT, BHI agar, 35-37° C., 20-24 hours, unit assumed
# Method: as §1
# [9] = system: Streptococcus pyogenes PIU 2548; type: cell-based; conditions: code NN, BHI agar, 35-37° C., 20-24 hours, unit assumed
# Method: as §1
# [10] = system: Streptococcus agalactiae CMX 508; type: cell-based; conditions: code KK, BHI agar, 35-37° C., 20-24 hours, unit assumed
# Method: as §1
# [11] = system: Staphylococcus aureus 1775; type: cell-based; conditions: code GG, BHI agar, 35-37° C., 20-24 hours, unit assumed
# Method: as §1
# [12] = system: Streptococcus Pneumonia 5649; type: cell-based; conditions: code ZA, BHI agar, 35-37° C., 20-24 hours, unit assumed
# Method: as §1
# [13] = system: Streptococcus bovis A-5169; type: cell-based; conditions: code JJ, BHI agar, 35-37° C., 20-24 hours, unit assumed
# Method: as §1
# [14] = system: Streptococcus pyogenes 930; type: cell-based; conditions: code MM, BHI agar, 35-37° C., 20-24 hours, unit assumed
# Method: as §1
# [15] = system: Nocardia Asteroides ATCC 99700; type: cell-based; conditions: code VV, BHI agar, 35-37° C., 20-24 hours, unit assumed
# Method: as §1
# [16] = system: Mycobacterium smegmatis ATCC 114; type: cell-based; conditions: code UU, BHI agar, 35-37° C., 20-24 hours, unit assumed
# Method: as §1
# [17] = system: Staphylococcus aureus NCTC 10649M; type: cell-based; conditions: code EE, BHI agar, 35-37° C., 20-24 hours, unit assumed
# Method: as §1
# [18] = system: Streptococcus Pneumonia 5979; type: cell-based; conditions: code ZZ, BHI agar, 35-37° C., 20-24 hours, unit assumed
# Method: as §1, with “test.” for “test. A plate containing erythromycin A was also prepared to provide test-to-test comparability.”
# [19] = system: Haemophilislnfluenzae DILL AMP R; type: cell-based, Haemophilus influenzae; conditions: code WW, BHI agar, 35-37° C., 20-24 hours, unit assumed
# Method: Representative compounds of the present invention were assayed in vitro for antibacterial activity as follows: twelve petri dishes containing successive aqueous dilutions of the test compound mixed with 10 mL of sterilized Brain Heart Infusion (BHI) agar (Difco 0418-01-5) were prepared. Each plate was inoculated with 1:100 (or 1:10 for slow-growing strains, such as Micrococcus and Streptococcus) dilutions of up to 32 different microorganisms, using a Steers replicator block. The inoculated plates were incubated at 35-37° C. for 20-24 hours. In addition, a control plate using BHI agar with no test compound was prepared and incubated at the beginning and end of each test.
# A plate containing erythromycin A was also prepared to provide test-to-test comparability.
# After incubation, each plate was visually inspected. The minimum inhibitory concentration (MIC) was defined as the lowest concentration of drug yielding no growth, a slight haze, or sparsely isolated colonies on the inoculum spot as compared to the growth control.
# [20] = system: Micrococcusluteus ATCC 4698; type: cell-based, Micrococcus luteus; conditions: code PP, BHI agar, 35-37° C., 20-24 hours, unit assumed
# Method: as §1
# [21] = system: Escherichiacoli SS; type: cell-based, Escherichia coli; conditions: code RR, BHI agar, 35-37° C., 20-24 hours, unit assumed
# Method: as §1
# [22] = system: Escherichiacoli JUHL; type: cell-based, Escherichia coli; conditions: code QQ, BHI agar, 35-37° C., 20-24 hours, unit assumed
# Method: as §1
Molecule,Antibacterial Activity (MIC's) [1],Antibacterial Activity (MIC's) [2],Antibacterial Activity (MIC's) ([3]; unit assumed),Antibacterial Activity (MIC's) [4],Antibacterial Activity (MIC's) [5],Antibacterial Activity (MIC's) [6],Antibacterial Activity (MIC's) [7],Antibacterial Activity (MIC's) [8],Antibacterial Activity (MIC's) [9],Antibacterial Activity (MIC's) [10],Antibacterial Activity (MIC's) [11],Antibacterial Activity (MIC's) [12],Antibacterial Activity (MIC's) [13],Antibacterial Activity (MIC's) [14],Antibacterial Activity (MIC's) [15],Antibacterial Activity (MIC's) [16],Antibacterial Activity (MIC's) [17],Antibacterial Activity (MIC's) [18],Antibacterial Activity (MIC's) [19],Antibacterial Activity (MIC's) [20],further results
"CCC1OC(=O)CC(=O)C(C)C(OC2OC(C)CC(N(C)C)C2O)C(C)(OCC=Cc2cnc3ccccc3c2)CC(C)C(=O)C(C)C2NC(=O)OC12C (centres unmarked) [Example 2, Compound of Formula (XI), R^p is Hydrogen, Y is Hydrogen, R^2 is 3-quinolyl, R^3 is Hydrogen and R^4 is Hydrogen]",0.01 µg/mL,0.39 µg/mL,0.03 µg/mL,0.03 µg/mL,0.39 µg/mL,0.39 µg/mL,> 100 µg/mL,> 100 µg/mL,0.2 µg/mL,0.02 µg/mL,> 100 µg/mL,0.5 µg/mL,0.02 µg/mL,50 µg/mL,0.2 µg/mL,6.2 µg/mL,0.39 µg/mL,8 µg/mL,8 µg/mL,0.2 µg/mL,Antibacterial Activity (MIC's) [21]: 0.39 µg/mL; Antibacterial Activity (MIC's) [22]: 100 µg/mL
"CC[C@H]1OC(=O)[C@H](C)[C@@H](O[C@H]2C[C@@](C)(OC)[C@@H](O)[C@H](C)O2)[C@H](C)[C@@H](O[C@@H]2O[C@H](C)C[C@H](N(C)C)[C@H]2O)[C@](C)(O)C[C@@H](C)C(=O)[C@H](C)[C@@H](O)[C@]1(C)O [Ery. A, Erythromycin A, reference compound]",0.05 µg/mL,0.2 µg/mL,0.06 µg/mL,0.06 µg/mL,0.39 µg/mL,3.1 µg/mL,> 100 µg/mL,> 100 µg/mL,6.2 µg/mL,0.05 µg/mL,> 100 µg/mL,16 µg/mL,0.02 µg/mL,> 100 µg/mL,0.1 µg/mL,3.1 µg/mL,0.39 µg/mL,,4 µg/mL,0.2 µg/mL,Antibacterial Activity (MIC's) [21]: 0.78 µg/mL; Antibacterial Activity (MIC's) [22]: > 100 µg/mL
"CCC1OC(=O)C(CC(C(=O)OC)C(=O)OC)C(=O)C(C)C(OC2OC(C)CC(N(C)C)C2O)C(C)(OCC=Cc2cnc3ccccc3c2)CC(C)C(=O)C(C)C2NC(=O)OC12C (centres unmarked) [Example 7, Compound of Formula (XI), R^p is Hydrogen Y is Hydrogen R^2 is 3-quinolyl, R^3 is —CH CH(CO2Me)2 and R^4 is Hydrogen]",,,0.03 µg/mL,0.03 µg/mL,,,,,,,,0.25 µg/mL,,,,,,64 µg/mL,8 µg/mL,,
"C=CCC1C(=O)OC(CC)C2(C)OC(=O)NC2C(C)C(=O)C(C)CC(C)(OCC=Cc2cnc3ccccc3c2)C(OC2OC(C)CC(N(C)C)C2O)C(C)C1=O (centres unmarked) [Example 5, Compound of Formula (XI), R^p is Hydrogen, Y is Hydrogen, R^2 is 3-quinolyl R^3 is —CH2CH═CH2 and R^4 is hydrogen]",100 µg/mL,> 100 µg/mL,32 µg/mL,32 µg/mL,> 100 µg/mL,> 100 µg/mL,> 100 µg/mL,> 100 µg/mL,> 100 µg/mL,100 µg/mL,> 100 µg/mL,> 128 µg/mL,25 µg/mL,> 100 µg/mL,> 100 µg/mL,> 100 µg/mL,> 100 µg/mL,> 128 µg/mL,,> 100 µg/mL,Antibacterial Activity (MIC's) [21]: > 100 µg/mL; Antibacterial Activity (MIC's) [22]: > 100 µg/mL
"CCC1OC(=O)C(CS(=O)(=O)O)C(=O)C(C)C(OC2OC(C)CC(N(C)C)C2O)C(C)(OCC=Cc2cnc3ccccc3c2)CC(C)C(=O)C(C)C2NC(=O)OC12C (centres unmarked) [Example 6, Compound of Formula (XI), R^p is Hydrogen, Y is Hydrogen, R^2 is 3-quinolyl, R^3 is —CH2SO3H and R^4 is Hydrogen]",0.2 µg/mL,0.39 µg/mL,0.125 µg/mL,0.25 µg/mL,0.78 µg/mL,0.78 µg/mL,> 100 µg/mL,> 100 µg/mL,0.78 µg/mL,0.2 µg/mL,> 100 µg/mL,2 µg/mL,0.05 µg/mL,25 µg/mL,0.2 µg/mL,12.5 µg/mL,0.78 µg/mL,64 µg/mL,16 µg/mL,0.39 µg/mL,Antibacterial Activity (MIC's) [21]: 3.1 µg/mL; Antibacterial Activity (MIC's) [22]: > 100 µg/mL
"Compound of Formula (I), R^p is Hydrogen, Y is Hydrogen, R^1 is —CH2CH(OH)CH(OH)—(3-quinolyl), R^3 is —CH2OH and R^4 is OH [Example 3]",0.01 µg/mL,0.05 µg/mL,,0.008 µg/mL,0.05 µg/mL,0.05 µg/mL,> 100 µg/mL,> 100 µg/mL,0.1 µg/mL,0.01 µg/mL,> 100 µg/mL,0.25 µg/mL,0.01 µg/mL,12.5 µg/mL,0.05 µg/mL,3.1 µg/mL,0.1 µg/mL,64 µg/mL,2 µg/mL,0.05 µg/mL,Antibacterial Activity (MIC's) [3]: ≦0.004; Antibacterial Activity (MIC's) [21]: 0.2 µg/mL; Antibacterial Activity (MIC's) [22]: 50 µg/mL
